One may read the IC50 as the midpoint of a concentration-inhibition curve. Usually solubility stands for how much of the substance goes into solution per volume.

Series [1] relates to HOS (human osteosarcoma). Briefly: In vitro cytotoxicity, Calcein AM assay, HOS. The class given is cell-based. As to conditions: Homo sapiens, 72 h, 3-day Calcein-AM assay. An excerpt:
Because toxic compounds adversely affect cell metabolic processes, many standard cytotoxicity assays are based on measuring the rate of metabolism of various artificial substrates. The resulting product is then quantified, for example, by spectrometry. Assays can be easily modified for use in 96-well plates, A microtiter assay based on the quantification of Calcein AM metabolism was used to evaluate the cytotoxicity of cytokinins, for example meta-topolin, ortho-topolin, kinetin, BAP or its mesylate salts, but also a number of other cytokinin mesylate derivatives according to the invention. The test is widely used in drug screening programs and in chemosensitivity testing. In living cells, Calcein AM is enzymatically hydrolyzed and the accumulation of the resulting calcein is manifested by green fluorescence. […] These cells were maintained in standard DMEM or RPMI medium (Sigma, MO, USA) supplemented with heat-inactivated fetal bovine serum (10%) with 2 mM L-glutamine and penicillin-streptomycin (1%) under standard cell culture conditions (37° C., 5% CO2 in a humid environment) and subcultured two or three times a week using a standard trypsinization procedure. Approximately 10,000 cells in 80 μl of medium were seeded in a 96-well microtiter plate. After 12 hours of incubation, the compounds to be tested were added in 20 μl aliquots. Control cultures were treated with DMSO alone. […] After 72 hours of incubation, Calcein AM solution (Molecular Probes) was added to a final concentration of 1 μg/ml and the cells were incubated for another hour.
Cytoxicity of compounds was tested on panel of cell lines of different histogenetic and species origin.

Series [2] relates to NIH-3T3. Briefly: In vitro cytotoxicity, Calcein AM assay, NIH-3T3. The following applies: Mus musculus, NIH3T3, 72 h, 3-day Calcein-AM assay. The format is cell-based. An excerpt:
Because toxic compounds adversely affect cell metabolic processes, many standard cytotoxicity assays are based on measuring the rate of metabolism of various artificial substrates. The resulting product is then quantified, for example, by spectrometry. Assays can be easily modified for use in 96-well plates, A microtiter assay based on the quantification of Calcein AM metabolism was used to evaluate the cytotoxicity of cytokinins, for example meta-topolin, ortho-topolin, kinetin, BAP or its mesylate salts, but also a number of other cytokinin mesylate derivatives according to the invention. The test is widely used in drug screening programs and in chemosensitivity testing. In living cells, Calcein AM is enzymatically hydrolyzed and the accumulation of the resulting calcein is manifested by green fluorescence. The following cell lines—RPMI 8226 (multiple myeloma), CEM (T-lymphoblastic leukemia), K562 (chronic myeloid leukemia), HL-60 (promyelocytic, leukemia), MCF-7 (breast adenocarcinoma), HeLa (cervical cancer), G361 (malignant melanoma), HOS (human osteosarcoma) and BJ (human foreskin fibroblasts)—were obtained from the American Type Culture Collection (Manassas, VA, USA). These cells were maintained in standard DMEM or RPMI medium (Sigma, MO, USA) supplemented with heat-inactivated fetal bovine serum (10%) with 2 mM L-glutamine and penicillin-streptomycin (1%) under standard cell culture conditions (37° C., 5% CO2 in a humid environment) and subcultured two or three times a week using a standard trypsinization procedure. Approximately 10,000 cells in 80 μl of medium were seeded in a 96-well microtiter plate. After 12 hours of incubation, the compounds to be tested were added in 20 μl aliquots. Control cultures were treated with DMSO alone. […] Serial, 3-fold dilutions (six in total, peak concentrations in 166 μM incubations) of each compound were tested. After 72 hours of incubation, Calcein AM solution (Molecular Probes) was added to a final concentration of 1 μg/ml and the cells were incubated for another hour. Free calcein fluorescence was then quantified using a Fluoroscan Ascent fluorometer (Microsystems), and the percentage of surviving cells in each well was calculated by dividing the OD obtained from each cell by the exposed cells by the mean OD obtained from control wells×100%, Finally, IC50 values (concentration causing a 50% decrease in cellular esterase activity) were calculated for each compound generated from dose-response curves (Krys̆tof et al., 2005, Bioorg. Med. Chem. Lett. 12, 3283-3286). The IC50 values reported here are averages obtained from at least three independent experiments, where the individual replication values fell within 20% of the average. […]

The subject of series [3] is Spring barley (variety Francin). Briefly: Field trial: grain yield and productive tillers of spring barley after foliar spray. The class given is in vivo. The following applies: for Length of plants / Medium tillers (number) / Number of spikes per square meter / SUM of tillers / Strong tillers (number) / Weak tillers (number) / Grain yield (t/ha) at 14% humidity / Grain yield, % compared to control / Length of plants, % compared to control / Medium tillers, % compared to control / Number of spikes per square meter, % compared to control / SUM of tillers, % compared to control / Strong tillers, % compared to control / Weak tillers, % compared to control: 5 uMol; for Length of plants / Medium tillers (number) / Number of spikes per square meter / SUM of tillers / Strong tillers (number) / Weak tillers (number) / Grain yield, % compared to control / Length of plants, % compared to control / Medium tillers, % compared to control / Number of spikes per square meter, % compared to control / SUM of tillers, % compared to control / Strong tillers, % compared to control / Weak tillers, % compared to control: application BBCH 31-33; for Grain yield (t/ha) at 14% humidity: application BBCH 31-33, spring barley; for Grain yield, % compared to control / Length of plants, % compared to control / Medium tillers, % compared to control / Number of spikes per square meter, % compared to control / SUM of tillers, % compared to control / Strong tillers, % compared to control / Weak tillers, % compared to control: untreated control = 100; for Grain yield: foliar spray 300 l/ha, BBCH 31-33. The protocol:
Spring barley (variety Francin) was treated in 2019 at the locality in Olomouc, sprayed with substances—marked BAP (benzylaminopurine), meta-topolin mesylate and BAP mesylate. The seed was 3.5 million germinating seeds, the experiment was established in 5 randomized replicates for each variant, the control was an untreated variant. The experiment was performed according to the GEP (Good Experimental Practice) methodology, the size of individual plots was 10 m^2. The application of the substances was carried out at a rate of 300 l/ha, in the growth phase BBCH 31-33 (beginning of peeling).

Series [4] can be described thus: Solubility in organic solvents (progressive solvent addition). The class given is physicochemical. The following applies: organic solvent or mixture, thermodynamic from solid. The method, then: Solubility in organic solvents was measured using the following protocol. Approximately 25 mg portions of meta-topolin and crystalline meta-topolin mesylate salt were placed in 48 different vials, separately. 5 volume aliquots of each solvent were added progressively (repeatedly) to the vials. After each addition, the mixture was checked for dissolution and if no dissolution was visible, the procedure was continued until dissolution was observed, or until 50 volumes have been added.

A short description of series [5]: Storage stability study of solid crystalline salt (XRPD, colour). The class given is physicochemical. The following applies: sealed tube, 25° C., 60 days. The protocol:
50 mg sample of crystalline meta-topolin mesylate crystalline salt was placed in an eppendorf tube and sealed. The sample was kept at 25° C. for 60 days. No color change was noted during the storage period. XRPD of samples were taken after 60 days to investigate any solid form change.

The nature of series [6]: Disproportionation stability study (water slurry, XRPD). The format is physicochemical. As to conditions: slurried in distilled water ca. 48 hours. The method, then:
A 50 mg sample of crystalline meta-topolin mesylate crystalline salt was slurried in 250 μL distilled water for ca. 48 hours and then checked by XRPD for disproportionation.

For series [7] the following is noted: water; reported value; cited from earlier work.
[8] abbreviates: DMF, read-out: Solubility in DMF.
Where [9] appears, read: DMSO, read-out: Solubility in DMSO.
[10] abbreviates: acetone, read-out: Solubility in aceton.
The mark [11] stands for this setting: acetonitrile, read-out: Solubility in acetonitrile.
[12] abbreviates: ethanol, read-out: Solubility in ethanol.
[13] abbreviates: heptane, read-out: Solubility in heptane.
Where [14] appears, read: methanol, read-out: Solubility in methanol.

Values after ≈ are worked out from the molar mass of the structure shown. Where two headings read alike, the source gives them in different places.

In the case of `COc1cccc(CNc2ncnc3nc[nH]c23)c1` [3MeOBAP, 6-(3-methoxybenzylamino)purine], the IC50 in series [1] and in series [2] was more than 167 µM each time.

On to `CS(=O)(=O)O.c1ccc(CNc2ncnc3nc[nH]c23)cc1` [BAP mesylate, 6-benzylaminopurine mesylate], for which, in series [2], the IC50 is more than 167 µM. In series [3], the Length of plants turned out to be 83.2 cm, the “Medium tillers (number)” value is recorded as 1.35, the “Number of spikes per square meter” value is reported as 758.4 and the SUM of tillers is listed as 6.35. Moreover, in series [3], the “Strong tillers (number)” value was found to be 2.75; the “Weak tillers (number)” value amounted to 2.25; the “Grain yield (t/ha) at 14% humidity” value came out at 7.74 t/ha; the “Grain yield, % compared to control” value was found to be 104.34%. Further, in series [3], the “Length of plants, % compared to control” value was found to be 100.48%; the “Medium tillers, % compared to control” value came to 64.29%; the “Number of spikes per square meter, % compared to control” value was found to be 112.06%; the “SUM of tillers, % compared to control” value turned out to be 110.43%. For the same compound, in series [3], the “Strong tillers, % compared to control” value was 152.78%; the “Weak tillers, % compared to control” value was determined as 121.62%; the Grain yield was determined as 104.34 % at control.

As to `c1ccc(CNc2ncnc3nc[nH]c23)cc1` [BAP, 6-benzylaminopurine], the IC50 in series [1] was more than 167 µM. Also, in series [3], the Length of plants was 82.5 cm, the “Medium tillers (number)” value stood at 1.7, the “Number of spikes per square meter” value was determined as 752 and the SUM of tillers is recorded as 6.6. In addition, in series [3], the “Strong tillers (number)” value is on record as 2.8; the “Weak tillers (number)” value amounted to 2.1; the “Grain yield (t/ha) at 14% humidity” value came out at 7.42 t/ha; the “Grain yield, % compared to control” value is 100.13%. For the same compound, in series [3], the “Length of plants, % compared to control” value amounted to 99.64%; the “Medium tillers, % compared to control” value worked out at 80.95%; the “Number of spikes per square meter, % compared to control” value is listed as 111.11%; the “SUM of tillers, % compared to control” value came out at 114.78%. In series [3], the “Strong tillers, % compared to control” value is listed as 155.56%; the “Weak tillers, % compared to control” value is 113.51%; the Grain yield entry is listed as “did not affect grain yield”.

As to `CS(=O)(=O)O.Oc1cccc(CNc2ncnc3nc[nH]c23)c1` [mT mesylate, 6-(3-hydroxybenzylamino)purine mesylate], the solubility in series [4] (setting [8]) is 6000 µg/mL; in series [4] (setting [9]) it was 22000 µg/mL; in series [4] (setting [10]) it was 400 µg/mL; in series [4] (setting [11]), less than 250 µg/mL; in series [4] (setting [12]), 400 µg/mL; in series [4] (setting [13]) it was less than 100 µg/mL. Besides, the solubility in series [4] (setting [14]) amounted to 700 µg/mL. Also, the “Storage stability (XRPD pattern and colour)” value in series [5] is “did not reveal any changes in XRPD spektra, or change in color”. Besides, the “Disproportionation (XRPD)” value in series [6] was “No signs of disproportionation were observed”. The compound also returned a Grain yield in series [3] of 108.03 % at control.

Consider `Oc1cccc(CNc2ncnc3nc[nH]c23)c1` [meta-topolin (mT), 6-(3-hydroxybenzylamino)purine], for which the solubility in series [4] (setting [8]) is 6000 µg/mL (≈ 24.9 mM); in series [4] (setting [9]), 24000 µg/mL (≈ 99.5 mM); in series [4] (setting [10]) it was 400 µg/mL (≈ 1.66 mM); in series [4] (setting [11]), less than 250 µg/mL; in series [4] (setting [12]), 5000 µg/mL (≈ 20.7 mM); in series [4] (setting [13]), less than 100 µg/mL. Besides, the solubility in series [4] (setting [14]) is 5000 µg/mL (≈ 20.7 mM). The IC50 in series [1] was more than 167 µM. The “aqueous solubility (reported)” value in series [7] was less than 250 µg/mL.

As for `Oc1ccccc1CNc1ncnc2nc[nH]c12` [ortho-topolin (oT), 6-(2-hydroxybenzylamino)purine], the IC50 in series [1] was more than 167 µM.

The values are drawn from US12570657B2, “Mesylate salts of heterocyclic cytokinins, compositions containing these derivatives and use thereof” (UNIVERZITA PALACKEHO V OLOMOUCI, priority 2020, dated 2026).
